This note sets out measurements from patent publication US4725676A, “5-(3,5-disubstituted phenylazo)-2-hydroxybenzene-acetic acids and salts and lactones thereof having a potentially inhibitory effect on 15-hydroxy-prostaglandin dehydrogenase” (Pharmacia AB, priority 1984, dated 1988).

Holding throughout (type): biochemical
Experiment [1] concerns cyclooxygenase. The experiment is described as follows: Inhibition of cyclooxygenase. To be noted: at concentrations of from 10 to 1,000 nM.
Experiment [2] has as its target T1, PGDH from rat colon (Rattus norvegicus, UniProt O08699).
T1 construct: PGDH from rat colon; from tissue; host or cells: rat colon
T1 sequence (O08699 1-266): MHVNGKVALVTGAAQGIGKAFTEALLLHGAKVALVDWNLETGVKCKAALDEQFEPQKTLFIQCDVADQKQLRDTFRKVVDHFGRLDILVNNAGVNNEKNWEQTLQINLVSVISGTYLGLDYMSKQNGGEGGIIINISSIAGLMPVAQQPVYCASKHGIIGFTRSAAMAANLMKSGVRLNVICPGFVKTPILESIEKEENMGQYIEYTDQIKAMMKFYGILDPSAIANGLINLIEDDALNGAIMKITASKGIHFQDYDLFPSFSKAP
Description: Inhibition of PGDH from rat colon. To be noted: similarly tested, read-out: 50% PGDH inhibition at. The protocol:
(§1) Radioactively labelled prostaglandin PGF 2 was incubated with the enzyme as according to Berry, C. N. et al., Biochem. Pharmacol. 1983, Vol. 32, p. 2863.
(§2) The compound of Example 2 was added in various concentrations, and the inhibition was measured as stated above.
When similarly tested against PGDH from rat colon the compound gave 50% PGDH inhibition at 56 nM. […] It should be noted that (V) is the strongest inhibitor of this type known in the literature.

For experiment [3], the target named is T2, human PGDH (Homo sapiens, UniProt P15428).
T2 construct: human PGDH isolated from placenta; from tissue; host or cells: human placenta
T2 sequence (P15428 1-266): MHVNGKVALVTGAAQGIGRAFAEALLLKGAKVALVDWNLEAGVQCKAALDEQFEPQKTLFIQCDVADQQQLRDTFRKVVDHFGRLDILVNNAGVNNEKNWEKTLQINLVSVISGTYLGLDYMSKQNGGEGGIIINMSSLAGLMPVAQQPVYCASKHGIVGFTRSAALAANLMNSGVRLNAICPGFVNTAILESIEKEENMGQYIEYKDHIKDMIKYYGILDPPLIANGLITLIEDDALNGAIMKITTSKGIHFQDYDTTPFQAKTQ
Description: Inhibitory effect on human PGDH isolated from placenta. To be noted: radioactively labelled prostaglandin PGF 2, read-out: 50% PGDH inhibition at a concentration of. As to the method: The compound of Example 2 was studied in respect of its inhibitory effect on human PGDH isolated from placenta.
as §1, §2

In the case of `COC(=O)c1cc(N=Nc2ccc(O)c(CC(=O)O)c2)cc(C(=O)OC)c1` [Example 2, 5-(3,5-bis-(methoxycarbonyl)-phenylazo)-2-hydroxy-phenylacetic acid], the “inhibition of cyclooxygenase detected” value in experiment [1] was “No inhibition whatever”. For the same compound, the values for the IC50 in experiment [2] and in experiment [3] were 56 nM and 28 nM, respectively.

For `CCOC(=O)c1ccc(N=Nc2ccc(O)c(CC(=O)O)c2)cc1` [V, reference compound], the IC50 in experiment [3] turned out to be 290 nM.
